Among the data in ChEMBL document CHEMBL4145590, “SAR Studies of N-[2-(1H-Tetrazol-5-yl)phenyl]benzamide Derivatives as Potent G Protein-Coupled Receptor-35 Agonists” (ACS Med Chem Lett, 2018) are Activity, EC50 and IC50 values, retold here.

The target of assay [1] is T1, G-protein coupled receptor 35 (Homo sapiens, UniProt Q9HC97). Briefly: Agonist activity at GPR35 in human HT-29 cells by dynamic mass redistribution assay. The format is functional, cell-based. Particulars: for pEC50: read-out: EC50.
T1 sequence (Q9HC97 whole entry): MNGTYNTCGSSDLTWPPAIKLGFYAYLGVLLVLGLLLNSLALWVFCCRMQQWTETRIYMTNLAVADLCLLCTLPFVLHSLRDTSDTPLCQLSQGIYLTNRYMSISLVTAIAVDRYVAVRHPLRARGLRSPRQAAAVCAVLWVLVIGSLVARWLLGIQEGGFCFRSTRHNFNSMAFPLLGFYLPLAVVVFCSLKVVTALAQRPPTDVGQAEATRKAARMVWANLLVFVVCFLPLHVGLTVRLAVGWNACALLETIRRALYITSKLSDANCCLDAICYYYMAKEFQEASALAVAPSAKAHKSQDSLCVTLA
In assay [2] the target is T1, G-protein coupled receptor 35. Briefly: Agonist activity at GPR35 in human HT-29 cells in presence of GPR35 antagonist ML-145 by dynamic mass redistribution assay. The class given is functional, cell-based.
For assay [3] the target is unchanged. Put plainly: Desensitization of GPR35 in human HT-29 cells assessed as inhibition of zaprinast-induced dynamic mass redistribution pretreated for 1 hr followed by zaprinast stimulation. The format is functional, cell-based.
For assay [4], the target named is G protein-coupled receptor GPR35 (Rattus norvegicus, UniProt Q33BM1). Put plainly: Agonist activity at recombinant rat N-terminal FLAG/eYFP-fused GPR35 expressed in HEK293 cells assessed as induction of beta-arrestin recruitment by BRET assay. The class given is functional, cell-based.
Chain of G protein-coupled receptor GPR35 (Q33BM1 whole entry, the tested form may be a part): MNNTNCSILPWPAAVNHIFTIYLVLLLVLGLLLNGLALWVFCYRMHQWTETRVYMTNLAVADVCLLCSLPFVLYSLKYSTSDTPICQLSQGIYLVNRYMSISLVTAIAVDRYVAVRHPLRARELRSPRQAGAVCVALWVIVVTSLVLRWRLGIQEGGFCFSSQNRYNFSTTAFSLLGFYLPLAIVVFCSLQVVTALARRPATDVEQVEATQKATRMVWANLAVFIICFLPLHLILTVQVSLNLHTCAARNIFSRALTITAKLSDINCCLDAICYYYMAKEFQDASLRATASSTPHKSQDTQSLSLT
Assay [5] has as its target T1, G-protein coupled receptor 35. Put plainly: Agonist activity at GPR35 in human HT-29 cells assessed as increase in ERK1/2 phosphorylation at 0.1 to 1 uM pretreated for 10 mins followed by GPR35 antagonist ML-145 addition measured after 5 mins by Western blot analysis. The class given is functional, cell-based. In general terms: Immunoblotting shows a protein as a band on a membrane.

The target is the same in assay [6]. Briefly: Agonist activity at GPR35 in human HT-29 cells assessed as increase in ERK1/2 phosphorylation at 0.1 to 1 uM after 15 mins by Western blot analysis. The format is functional, cell-based.
The target is the same in assay [7]. Briefly: Agonist activity at recombinant human N-terminal FLAG/eYFP-fused GPR35a expressed in CHOK1 cells assessed as induction of beta-arrestin recruitment by path hunter assay. The format is cell-based. On the technique in general: Activated receptors often draw arrestin, which recruitment assays turn into a signal.

pEC50, pIC50: −log10 of the molar value. The source made the active and inactive calls. The rule behind the calls is not given here.

Broadly, the pEC50 is −log10 of the EC50, conventionally taken in molar units. Broadly, the pIC50 is −log10 of the IC50, conventionally taken in molar units. Take `COc1ccc(C(=O)Nc2cc(Br)ccc2-c2nnn[nH]2)c(F)c1`: in assay [1], the Activity result was “Dose-dependent effect” and the pEC50 was 7.39. Also, in assay [2], the result was inactive. In addition, in assay [3], the pIC50 is 7.85.

Regarding `O=C(Nc1cc(Br)ccc1-c1nnn[nH]1)c1ccco1`, in assay [1], the Activity entry was “Dose-dependent effect” and the pEC50 is 5.97. The outcome in assay [2] was inactive. Further, in assay [3], the pIC50 was 6.36.

In the case of `COc1ccc(C(=O)Nc2cc(Br)ccc2-c2nnn[nH]2)cc1OC`, in assay [1], the Activity result was “Dose-dependent effect” and the pEC50 was 6.08. Moreover, in assay [2], the outcome was inactive. The pIC50 in assay [3] was 6.59.

Take `Cc1cccn2c(=O)c(-c3nnn[nH]3)cnc12` [PEMIROLAST]: in assay [4], the pEC50 is 7.02.

For `Cc1cccc(C(=O)Nc2cc(Br)ccc2-c2nnn[nH]2)c1`, in assay [1], the Activity result is “Dose-dependent effect” and the pEC50 is 6.07. Besides, the outcome in assay [2] was inactive. In assay [3], the pIC50 is 6.44.

As for `O=C(Nc1cc(Br)ccc1-c1nnn[nH]1)c1ccccc1Cl`, in assay [1], the Activity entry is “Dose-dependent effect” and the pEC50 was 6.06. In addition, the result in assay [2] was inactive. Further, the pIC50 in assay [3] is 6.39.

For the molecule `O=C(Nc1cc(Br)ccc1-c1nnn[nH]1)c1cccc(F)c1`, in assay [1], the Activity entry was “Dose-dependent effect” and the pEC50 is 6.21. Besides, the result in assay [2] was inactive. Besides, the pIC50 in assay [3] is 6.68.

With `O=C(Nc1cc(Br)ccc1-c1nnn[nH]1)c1ccccc1`, in assay [1], the Activity result is “Dose-dependent effect” and the pEC50 was 6.06. Besides, in assay [2], the outcome was inactive. The pIC50 in assay [3] was 6.52.

Regarding `Cc1ccccc1C(=O)Nc1cc(Br)ccc1-c1nnn[nH]1`, in assay [1], the Activity result is “Dose-dependent effect” and the pEC50 is 5.69. Further, the outcome in assay [2] was inactive. For the same molecule, the pIC50 in assay [3] is 6.09.

On to `CC(C)C(=O)Nc1cc(Br)ccc1-c1nnn[nH]1`, for which, in assay [1], the Activity result is “Dose-dependent effect” and the pEC50 is 6.42. In addition, the result in assay [2] was inactive. Also, in assay [3], the pIC50 was 6.55.

As to `O=C(Nc1cc(Br)ccc1-c1nnn[nH]1)C1CCCCC1`, in assay [1], the Activity result is “Dose-dependent effect” and the pEC50 was 6.36. In addition, the outcome in assay [2] was inactive. The pIC50 in assay [3] is 6.70.

In the case of `O=C(Nc1cc(Br)ccc1-c1nnn[nH]1)c1cccc(C(F)(F)F)c1`, in assay [1], the Activity entry was “Dose-dependent effect” and the pEC50 is 5.34. Also, in assay [2], the result was inactive. Moreover, the pIC50 in assay [3] was 5.89.

Consider `O=C(Nc1cc(Br)ccc1-c1nnn[nH]1)c1ccccc1F`, for which, in assay [1], the Activity entry was “Dose-dependent effect” and the pEC50 was 6.46. The outcome in assay [2] was inactive. Moreover, in assay [3], the pIC50 is 6.77.

For `Cc1ccc(C(=O)Nc2cc(Br)ccc2-c2nnn[nH]2)cc1`, in assay [1], the Activity entry was “Dose-dependent effect” and the pEC50 was 5.88. For the same molecule, the result in assay [2] was inactive. Further, in assay [3], the pIC50 was 6.29.

With `O=C(Nc1cc(Br)ccc1-c1nnn[nH]1)c1ccc(C(F)(F)F)cc1`, in assay [1], the Activity result is “Dose-dependent effect” and the pEC50 is 5.44. In assay [2], the result was inactive. The pIC50 in assay [3] was 5.87.

With `CCC(=O)Nc1cc(Br)ccc1-c1nnn[nH]1`, in assay [1], the Activity entry was “Dose-dependent effect” and the pEC50 is 6.21. The result in assay [2] was inactive. Besides, the pIC50 in assay [3] was 6.15.

For the molecule `O=C(Nc1cc(Br)ccc1-c1nnn[nH]1)c1ccc(Cl)cc1`, in assay [1], the Activity result is “Dose-dependent effect” and the pEC50 is 6.28. Moreover, the result in assay [2] was inactive. Also, the pIC50 in assay [3] is 6.68.

Regarding `O=C(Nc1cc(Br)ccc1-c1nnn[nH]1)c1cccc(Cl)c1`, in assay [1], the Activity entry was “Dose-dependent effect” and the pEC50 was 5.66. Further, the outcome in assay [2] was inactive. Besides, in assay [3], the pIC50 is 6.32.

Consider `COc1cccc(C(=O)Nc2cc(Br)ccc2-c2nnn[nH]2)c1`, for which, in assay [1], the Activity entry was “Dose-dependent effect” and the pEC50 was 5.71. In addition, in assay [2], the outcome was inactive. Moreover, the pIC50 in assay [3] was 6.09.

`COc1ccc(C(=O)Nc2ccccc2-c2nn[nH]n2)cc1`: in assay [1], the Activity result is “Dose-dependent effect” and the pEC50 is 6.19. Moreover, the outcome in assay [2] was inactive. In assay [3], the pIC50 is 6.55.

Take `Nc1ccc(Br)cc1-c1nnn[nH]1`: in assay [1], the Activity result was “Dose-dependent effect” and the pEC50 was 4.36. Besides, the result in assay [2] was inactive. For the same molecule, the pIC50 in assay [3] was 4.12.

As for `COc1ccc(C(=O)Nc2ccc(Br)cc2-c2nnn[nH]2)cc1`, in assay [1], the Activity entry is “Dose-dependent effect” and the pEC50 is 6.52. Further, the result in assay [2] was inactive. Besides, the pIC50 in assay [3] was 6.96.

For the molecule `COc1ccc(C(=O)Nc2cc(F)ccc2-c2nnn[nH]2)cc1`, in assay [1], the Activity entry is “Dose-dependent effect” and the pEC50 was 6.70. In addition, the result in assay [2] was inactive. The pIC50 in assay [3] was 7.09.

As to `O=C(Nc1cc(Br)ccc1-c1nnn[nH]1)c1ccc(F)cc1F`, in assay [1], the Activity entry is “Dose-dependent effect” and the pEC50 is 6.89. In assay [2], the result was inactive. Moreover, the pIC50 in assay [3] was 7.22. The result in assay [5] was inactive. In addition, in assay [6], the result was Active.

For `O=C(Nc1cc(Br)ccc1-c1nnn[nH]1)c1ccc(Cl)cc1Cl`, in assay [1], the Activity entry was “Dose-dependent effect” and the pEC50 was 6.51. Besides, the outcome in assay [2] was inactive. Besides, the pIC50 in assay [3] was 6.96.

In the case of `COc1ccc(C(=O)Nc2cc(Br)ccc2-c2nnn[nH]2)cc1`, in assay [1], the Activity result is “Dose-dependent effect” and the pEC50 is 7.23. Also, the outcome in assay [2] was inactive. In addition, the pIC50 in assay [3] is 7.59. In assay [5], the outcome was inactive. For the same molecule, in assay [6], the outcome was Active.

For `O=C(Nc1cc(Br)ccc1-c1nnn[nH]1)c1cccs1`, in assay [1], the Activity result is “Dose-dependent effect” and the pEC50 is 6.29. Besides, in assay [2], the result was inactive. In addition, the pIC50 in assay [3] was 6.59.

Consider `COc1ccccc1C(=O)Nc1cc(Br)ccc1-c1nnn[nH]1`, for which, in assay [1], the Activity result is “Dose-dependent effect” and the pEC50 was 6.07. The result in assay [2] was inactive. Also, in assay [3], the pIC50 was 6.40.

Take `O=C(Nc1cc(Br)ccc1-c1nnn[nH]1)c1ccc(F)cc1`: in assay [1], the Activity result was “Dose-dependent effect” and the pEC50 is 6.35. The outcome in assay [2] was inactive. In assay [3], the pIC50 was 6.80.

Turning to `COc1ccc(C(=O)Nc2ccc(-c3nnn[nH]3)cc2)cc1`, in assay [1], the Activity result is “Dose-dependent effect” and the pEC50 is 4.75. Also, the result in assay [2] was inactive. For the same molecule, the pIC50 in assay [3] is 5.08.

`COc1ccc(C(=O)Nc2ccccc2C#N)cc1`: the EC50 result in assay [1] (ht-29) is reported as “Not Active”. Also, the outcome in assay [2] was inactive.

Take `O=C1c2ccccc2S(=O)(=O)c2cc(-c3nnn[nH]3)ccc21` [DOXANTRAZOLE]: the pEC50 in assay [7] is 5.47.
